Measured values reported in PubChem BioAssay (NCI).
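Each compound was tested at five concentrations against cells in 96-well plates for 48 hours. TGI marks complete inhibition of growth.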

System: NCI-H522 lung
Assay: NCI tumour cell line growth inhibition, 48 h

Compared with CCCOC(=O)NC(C)C(=O)NC(CCC(=O)NC(CCCC(N)C(=O)O)C(=O)NC(C)C(=O)O)C(=O)O (stereo not given), COC(=O)C1(Cc2ccc3c(c2)CCC3)Cc2ccccc2C1=O (stereo not given) is lower in TGI: > 100 µM for the first, 31.5 µM for the second.

System: OVCAR-4 ovarian
Assay: NCI tumour cell line growth inhibition, 48 h

COC(=O)c1cc(C)ccc1CC(Cc1ccc(C)cc1)C(=O)OC (stereo not given) and COC(=O)C1(Cc2ccc3c(c2)CCC3)Cc2ccccc2C1=O (stereo not given) cannot be ordered by TGI: > 100 µM for the first, > 100 µM for the second.

Nc1nc(N)nc(CCCc2nc(N)nc(N)n2)n1 and COc1cc(OCc2ccc3nc(OC)c(OC)nc3c2)cc(OC)c1OC cannot be ordered by TGI: > 100 µM for the first, > 10 µM for the second.

First: COC(=O)C1(Cc2ccc3c(c2)CCC3)Cc2cc3c(cc2C1)CCC3
Second: Cc1cc(/N=C/c2ccc(C#N)cc2)n(-c2ccccc2)n1
The TGI of the first is lower: 89.3 µM for the first, > 100 µM for the second.

Work on CCCOC(=O)NC(C)C(=O)NC(CCC(=O)NC(CCCC(N)C(=O)O)C(=O)NC(C)C(=O)O)C(=O)O (stereo not given) yielded a TGI of 70.6 µM.

System: MDA-MB-435
Assay: NCI tumour cell line growth inhibition, 48 h

Going from COC(=O)c1cc(C)ccc1CC(Cc1ccc(C)cc1)C(=O)OC (stereo not given) to COC(=O)C1(Cc2ccc3c(c2)CCC3)Cc2ccccc2C1=O (stereo not given), the TGI falls from > 100 µM to 18 µM.

Nc1nc(N)nc(CCCc2nc(N)nc(N)n2)n1 and COc1cc(OCc2ccc3nc(OC)c(OC)nc3c2)cc(OC)c1OC cannot be ordered by TGI: > 100 µM for the first, > 10 µM for the second.

COC(=O)C1(Cc2ccc3c(c2)CCC3)Cc2cc3c(cc2C1)CCC3 and Cc1cc(/N=C/c2ccc(C#N)cc2)n(-c2ccccc2)n1 cannot be ordered by TGI: > 100 µM for the first, > 100 µM for the second.

With CCCOC(=O)NC(C)C(=O)NC(CCC(=O)NC(CCCC(N)C(=O)O)C(=O)NC(C)C(=O)O)C(=O)O (stereo not given) the TGI was > 100 µM.

System: BT-549 breast
Assay: NCI tumour cell line growth inhibition, 48 h

First: COC(=O)c1cc(C)ccc1CC(Cc1ccc(C)cc1)C(=O)OC (stereo not given)
Second: COC(=O)C1(Cc2ccc3c(c2)CCC3)Cc2ccccc2C1=O (stereo not given)
The TGI of the first is higher: > 100 µM for the first, 41.7 µM for the second.

Nc1nc(N)nc(CCCc2nc(N)nc(N)n2)n1 and COc1cc(OCc2ccc3nc(OC)c(OC)nc3c2)cc(OC)c1OC cannot be ordered by TGI: > 100 µM for the first, > 6.32 µM for the second.

COC(=O)C1(Cc2ccc3c(c2)CCC3)Cc2cc3c(cc2C1)CCC3 and Cc1cc(/N=C/c2ccc(C#N)cc2)n(-c2ccccc2)n1 cannot be ordered by TGI: > 100 µM for the first, > 100 µM for the second.

Compound CCCOC(=O)NC(C)C(=O)NC(CCC(=O)NC(CCCC(N)C(=O)O)C(=O)NC(C)C(=O)O)C(=O)O (stereo not given) has a TGI of 37.9 µM.

System: MOLT-4 leukemia
Assay: NCI tumour cell line growth inhibition, 48 h

COC(=O)c1cc(C)ccc1CC(Cc1ccc(C)cc1)C(=O)OC (stereo not given) and COC(=O)C1(Cc2ccc3c(c2)CCC3)Cc2ccccc2C1=O (stereo not given) cannot be ordered by TGI: > 49.5 µM for the first, 52.3 µM for the second.

Nc1nc(N)nc(CCCc2nc(N)nc(N)n2)n1 and COc1cc(OCc2ccc3nc(OC)c(OC)nc3c2)cc(OC)c1OC cannot be ordered by TGI: > 100 µM for the first, > 10 µM for the second.

COC(=O)C1(Cc2ccc3c(c2)CCC3)Cc2cc3c(cc2C1)CCC3 and Cc1cc(/N=C/c2ccc(C#N)cc2)n(-c2ccccc2)n1 cannot be ordered by TGI: > 100 µM for the first, > 100 µM for the second.

With CCCOC(=O)NC(C)C(=O)NC(CCC(=O)NC(CCCC(N)C(=O)O)C(=O)NC(C)C(=O)O)C(=O)O (stereo not given) the TGI was 41.9 µM.

System: MDA-MB-231 breast
Assay: NCI tumour cell line growth inhibition, 48 h

COC(=O)c1cc(C)ccc1CC(Cc1ccc(C)cc1)C(=O)OC (stereo not given) and COC(=O)C1(Cc2ccc3c(c2)CCC3)Cc2ccccc2C1=O (stereo not given) cannot be ordered by TGI: > 100 µM for the first, > 100 µM for the second.

Nc1nc(N)nc(CCCc2nc(N)nc(N)n2)n1 and COc1cc(OCc2ccc3nc(OC)c(OC)nc3c2)cc(OC)c1OC cannot be ordered by TGI: > 100 µM for the first, > 10 µM for the second.

COC(=O)C1(Cc2ccc3c(c2)CCC3)Cc2cc3c(cc2C1)CCC3 and Cc1cc(/N=C/c2ccc(C#N)cc2)n(-c2ccccc2)n1 cannot be ordered by TGI: > 100 µM for the first, > 100 µM for the second.

For CCCOC(=O)NC(C)C(=O)NC(CCC(=O)NC(CCCC(N)C(=O)O)C(=O)NC(C)C(=O)O)C(=O)O (stereo not given), the TGI was 50.8 µM.

System: SF-539 CNS
Assay: NCI tumour cell line growth inhibition, 48 h

First: COC(=O)c1cc(C)ccc1CC(Cc1ccc(C)cc1)C(=O)OC (stereo not given)
Second: COC(=O)C1(Cc2ccc3c(c2)CCC3)Cc2ccccc2C1=O (stereo not given)
The TGI of the first is higher: > 100 µM for the first, 32.9 µM for the second.

Nc1nc(N)nc(CCCc2nc(N)nc(N)n2)n1 and COc1cc(OCc2ccc3nc(OC)c(OC)nc3c2)cc(OC)c1OC cannot be ordered by TGI: > 100 µM for the first, > 10 µM for the second.

COC(=O)C1(Cc2ccc3c(c2)CCC3)Cc2cc3c(cc2C1)CCC3 and Cc1cc(/N=C/c2ccc(C#N)cc2)n(-c2ccccc2)n1 cannot be ordered by TGI: > 100 µM for the first, > 100 µM for the second.

CCCOC(=O)NC(C)C(=O)NC(CCC(=O)NC(CCCC(N)C(=O)O)C(=O)NC(C)C(=O)O)C(=O)O (stereo not given) showed a TGI of 31.3 µM.

System: OVCAR-3 ovarian
Assay: NCI tumour cell line growth inhibition, 48 h

COC(=O)c1cc(C)ccc1CC(Cc1ccc(C)cc1)C(=O)OC (stereo not given) and COC(=O)C1(Cc2ccc3c(c2)CCC3)Cc2ccccc2C1=O (stereo not given) cannot be ordered by TGI: > 100 µM for the first, > 100 µM for the second.

Nc1nc(N)nc(CCCc2nc(N)nc(N)n2)n1 and COc1cc(OCc2ccc3nc(OC)c(OC)nc3c2)cc(OC)c1OC cannot be ordered by TGI: > 100 µM for the first, > 10 µM for the second.

COC(=O)C1(Cc2ccc3c(c2)CCC3)Cc2cc3c(cc2C1)CCC3 and Cc1cc(/N=C/c2ccc(C#N)cc2)n(-c2ccccc2)n1 cannot be ordered by TGI: > 100 µM for the first, > 100 µM for the second.

With CCCOC(=O)NC(C)C(=O)NC(CCC(=O)NC(CCCC(N)C(=O)O)C(=O)NC(C)C(=O)O)C(=O)O (stereo not given) the TGI was > 100 µM.

System: U251 CNS
Assay: NCI tumour cell line growth inhibition, 48 h

Going from COC(=O)c1cc(C)ccc1CC(Cc1ccc(C)cc1)C(=O)OC (stereo not given) to COC(=O)C1(Cc2ccc3c(c2)CCC3)Cc2ccccc2C1=O (stereo not given), the TGI falls from > 100 µM to 37.2 µM.

Nc1nc(N)nc(CCCc2nc(N)nc(N)n2)n1 and COc1cc(OCc2ccc3nc(OC)c(OC)nc3c2)cc(OC)c1OC cannot be ordered by TGI: > 100 µM for the first, > 10 µM for the second.

COC(=O)C1(Cc2ccc3c(c2)CCC3)Cc2cc3c(cc2C1)CCC3 and Cc1cc(/N=C/c2ccc(C#N)cc2)n(-c2ccccc2)n1 cannot be ordered by TGI: > 100 µM for the first, > 100 µM for the second.

CCCOC(=O)NC(C)C(=O)NC(CCC(=O)NC(CCCC(N)C(=O)O)C(=O)NC(C)C(=O)O)C(=O)O (stereo not given) gave a TGI of 55.9 µM.

System: 786-0 renal
Assay: NCI tumour cell line growth inhibition, 48 h

COC(=O)c1cc(C)ccc1CC(Cc1ccc(C)cc1)C(=O)OC (stereo not given) and COC(=O)C1(Cc2ccc3c(c2)CCC3)Cc2ccccc2C1=O (stereo not given) cannot be ordered by TGI: > 100 µM for the first, > 100 µM for the second.

Nc1nc(N)nc(CCCc2nc(N)nc(N)n2)n1 and COc1cc(OCc2ccc3nc(OC)c(OC)nc3c2)cc(OC)c1OC cannot be ordered by TGI: > 100 µM for the first, > 10 µM for the second.

COC(=O)C1(Cc2ccc3c(c2)CCC3)Cc2cc3c(cc2C1)CCC3 and Cc1cc(/N=C/c2ccc(C#N)cc2)n(-c2ccccc2)n1 cannot be ordered by TGI: > 100 µM for the first, > 100 µM for the second.

In the case of CCCOC(=O)NC(C)C(=O)NC(CCC(=O)NC(CCCC(N)C(=O)O)C(=O)NC(C)C(=O)O)C(=O)O (stereo not given), the TGI is reported as > 100 µM.

System: UACC-62 melanoma
Assay: NCI tumour cell line growth inhibition, 48 h

COC(=O)c1cc(C)ccc1CC(Cc1ccc(C)cc1)C(=O)OC (stereo not given) and COC(=O)C1(Cc2ccc3c(c2)CCC3)Cc2ccccc2C1=O (stereo not given) cannot be ordered by TGI: > 100 µM for the first, > 100 µM for the second.

Nc1nc(N)nc(CCCc2nc(N)nc(N)n2)n1 and COc1cc(OCc2ccc3nc(OC)c(OC)nc3c2)cc(OC)c1OC cannot be ordered by TGI: > 100 µM for the first, > 10 µM for the second.

COC(=O)C1(Cc2ccc3c(c2)CCC3)Cc2cc3c(cc2C1)CCC3 and Cc1cc(/N=C/c2ccc(C#N)cc2)n(-c2ccccc2)n1 cannot be ordered by TGI: > 100 µM for the first, > 100 µM for the second.

For CCCOC(=O)NC(C)C(=O)NC(CCC(=O)NC(CCCC(N)C(=O)O)C(=O)NC(C)C(=O)O)C(=O)O (stereo not given), the TGI was 33.7 µM.

System: SK-OV-3 ovarian
Assay: NCI tumour cell line growth inhibition, 48 h

COC(=O)c1cc(C)ccc1CC(Cc1ccc(C)cc1)C(=O)OC (stereo not given) and COC(=O)C1(Cc2ccc3c(c2)CCC3)Cc2ccccc2C1=O (stereo not given) are within 1.5-fold of each other in TGI: 67.2 µM for the first, 85.8 µM for the second.

Nc1nc(N)nc(CCCc2nc(N)nc(N)n2)n1 and COc1cc(OCc2ccc3nc(OC)c(OC)nc3c2)cc(OC)c1OC cannot be ordered by TGI: > 100 µM for the first, > 10 µM for the second.

COC(=O)C1(Cc2ccc3c(c2)CCC3)Cc2cc3c(cc2C1)CCC3 and Cc1cc(/N=C/c2ccc(C#N)cc2)n(-c2ccccc2)n1 cannot be ordered by TGI: > 100 µM for the first, > 100 µM for the second.

System: HS 578T breast
Assay: NCI tumour cell line growth inhibition, 48 h

Going from COC(=O)c1cc(C)ccc1CC(Cc1ccc(C)cc1)C(=O)OC (stereo not given) to COC(=O)C1(Cc2ccc3c(c2)CCC3)Cc2ccccc2C1=O (stereo not given), the TGI falls from > 100 µM to 87.6 µM.

Nc1nc(N)nc(CCCc2nc(N)nc(N)n2)n1 and COc1cc(OCc2ccc3nc(OC)c(OC)nc3c2)cc(OC)c1OC cannot be ordered by TGI: > 100 µM for the first, > 10 µM for the second.

COC(=O)C1(Cc2ccc3c(c2)CCC3)Cc2cc3c(cc2C1)CCC3 and Cc1cc(/N=C/c2ccc(C#N)cc2)n(-c2ccccc2)n1 cannot be ordered by TGI: > 100 µM for the first, > 100 µM for the second.

With CCCOC(=O)NC(C)C(=O)NC(CCC(=O)NC(CCCC(N)C(=O)O)C(=O)NC(C)C(=O)O)C(=O)O (stereo not given) the TGI was 40.5 µM.

System: MCF7 breast
Assay: NCI tumour cell line growth inhibition, 48 h

COC(=O)c1cc(C)ccc1CC(Cc1ccc(C)cc1)C(=O)OC (stereo not given) and COC(=O)C1(Cc2ccc3c(c2)CCC3)Cc2ccccc2C1=O (stereo not given) cannot be ordered by TGI: > 31.6 µM for the first, 70.1 µM for the second.

Nc1nc(N)nc(CCCc2nc(N)nc(N)n2)n1 and COc1cc(OCc2ccc3nc(OC)c(OC)nc3c2)cc(OC)c1OC cannot be ordered by TGI: > 100 µM for the first, > 10 µM for the second.

First: COC(=O)C1(Cc2ccc3c(c2)CCC3)Cc2cc3c(cc2C1)CCC3
Second: Cc1cc(/N=C/c2ccc(C#N)cc2)n(-c2ccccc2)n1
The TGI of the first is lower: 58.5 µM for the first, > 100 µM for the second.

With CCCOC(=O)NC(C)C(=O)NC(CCC(=O)NC(CCCC(N)C(=O)O)C(=O)NC(C)C(=O)O)C(=O)O (stereo not given) the TGI was > 100 µM.

System: LOX IMVI melanoma
Assay: NCI tumour cell line growth inhibition, 48 h

Compared with COC(=O)c1cc(C)ccc1CC(Cc1ccc(C)cc1)C(=O)OC (stereo not given), COC(=O)C1(Cc2ccc3c(c2)CCC3)Cc2ccccc2C1=O (stereo not given) is lower in TGI: > 100 µM for the first, 28.5 µM for the second.

Nc1nc(N)nc(CCCc2nc(N)nc(N)n2)n1 and COc1cc(OCc2ccc3nc(OC)c(OC)nc3c2)cc(OC)c1OC cannot be ordered by TGI: > 100 µM for the first, > 10 µM for the second.

First: COC(=O)C1(Cc2ccc3c(c2)CCC3)Cc2cc3c(cc2C1)CCC3
Second: Cc1cc(/N=C/c2ccc(C#N)cc2)n(-c2ccccc2)n1
The TGI of the first is lower: 42.3 µM for the first, > 100 µM for the second.

CCCOC(=O)NC(C)C(=O)NC(CCC(=O)NC(CCCC(N)C(=O)O)C(=O)NC(C)C(=O)O)C(=O)O (stereo not given) showed a TGI of 30.1 µM.

System: HOP-62 NSCLC
Assay: NCI tumour cell line growth inhibition, 48 h

For COC(=O)c1cc(C)ccc1CC(Cc1ccc(C)cc1)C(=O)OC (stereo not given), the TGI was > 100 µM.
